One assay concerns mesangial cells. The note with it: cited from earlier work.
Another assay concerns platelets. The note with it: cited from earlier work.
The next assay concerns endothelial cells. The note with it: cited from earlier work.
Assay [1] concerns vascular smooth muscle cells. The note with it: cited from earlier work.
A further assay concerns monocytes. The note with it: cited from earlier work.
Another assay concerns neuronal cells. The note with it: cited from earlier work.
Another assay concerns MCs. The note with it: cited from earlier work.
Assay [2] relates to freshly isolated Wistar rat glomeruli. The note with it: Ang II 60 µM, acute application; text b29 words it 'up to'.
Excerpt: Sixteen-week Wistar Kyoto male rats were obtained from Charles River and were kept in a light-controlled environment with a 12:12-h light/dark cycle and given free access to water (filtered, RO water) and food (5V75-PicoLab Verified 75 IF, LabDiet, USA).
Briefly, male Wistar rat kidneys were harvested, decapsulated, and used to isolate glomeruli by differential sieving. Freshly isolated glomeruli were collected and stored on ice in a 15-mL tube with a 5% BSA (Sigma-Aldrich, # A8327)/RPMI-1640 solution with non-permeable 150 kDa TRITC-dextran (1 mg/mL, TdB Labs, #TD150, Uppsala, Sweden). […] Glomeruli were attached to poly-L-lysine covered glass-bottom dishes and covered with the extracellular solution containing 150 kDa TRITC dextran. Z-stacks with 18 consecutive focal planes (3 µm each) were collected every 1 min, allowing glomeruli volume reconstruction. Output files were imported into Imaris Software (Oxford Bitplane, version 9.6.1), reconstructed in 3D, and processed to calculate glomerular volume.

In the case of thrombin, the “Concentration at which significant Ca2+ response was detected” value in the assay on mesangial cells was “around 0.1 U/mL”. Also, the “Concentration at which significant Ca2+ response was detected (molar equivalent)” value in the assay on mesangial cells (equivalent of 0.1 U/mL) is reported as “approximately 1 nM”. Further, the “Thrombin concentration sufficient to induce Ca2+ mobilization” value with platelets was 0.1 to 1 U/mL. In addition, in the assay on endothelial cells, the “Thrombin concentration required to activate endothelial cells” value was 0.5 to 2 U/mL. Further, the “Thrombin concentration required to activate vascular smooth muscle cells” value in assay [1] is listed as 0.5 to 2 U/mL. Further, the “Thrombin concentration required to activate intracellular Ca2+ signaling” value in the assay on monocytes and with neuronal cells was 1-5 U/mL each time. Further, the “Effect on MC proliferation and synthesis” value in the assay with MCs was “stimulate MC proliferation and synthesis of prostaglandins, nitric oxide, endothelin-1, extracellular matrix components, and chemokines”.
As for Angiotensin II [Ang II], the Glomerular volume reduction in assay [2] was 20.7%.

The values are drawn from publication PMC11384906, “PAR1-mediated Non-periodical Synchronized Calcium Oscillations in Human Mesangial Cells” (Function, 2024).
